Experiments:
TNFR = assay: Receptor binding assay (TNFR), ELISA; details: peptide coated 50 μg/25 μl, O.D. 450 nm, positive control TNF-α
IL-1β = IL-1β ELISA in THP-1 cells treated with TNF-α; assay type: cell-based, human; details: 10 μg/ml pre-treatment 30 minutes, 50 ng/ml TNF-α, 24 hours
Protocol: (§1) The human monocytes, THP-1 cells were seeded on a 24-well plate at a density of 2×10^6 cells/well. After incubation overnight, the cells were pre-treated with the samples at 10 μg/ml for 30 minutes, and treated with 50 ng/ml TNF-α, followed by incubation for 24 hours. The cell incubation medium was obtained, followed by centrifugation at 13,000 rpm for 10 minutes at 4° C., and then the supernatant was separated. ELISA was carried out using IL-1b and IL-8 ELISA kit (R&D system).

IL-8 = IL-8 ELISA in THP-1 cells treated with TNF-α; assay type: cell-based, human; details: 10 μg/ml pre-treatment 30 minutes, 50 ng/ml TNF-α, 24 hours
Protocol: as §1

HGFR = target: T1, HGFR (Homo sapiens, UniProt P08581); assay: Receptor binding assay (HGFR), ELISA; details: peptide coated 50 μg/25 μl, O.D. 450 nm
T1 construct: purchased R&D Systems
Protocol: On an ELISA plate, 50 μg/25 μl peptide and 25 μl of a coating buffer (20 mM sodium phosphate pH 9.6) were added and mixed, and then incubated at 4° C. overnight. After washing three times with PBST (300 μl), the blocking with 200 μl of a blocking buffer (3% BSA) was carried out at room temperature for 2 hours. After washing three times with PBST (300 μl), HGFR (R&D Systems) was added at 0.5 μg/1 ml per well, followed by incubation at room temperature for 2 hours. After washing three times with PBST (300 μl), anti-human IgG-HRP was diluted at 1:1,000, which was then added at 100 μl per well, followed by incubation at room temperature for 2 hours. After washing three times with PBST (300 μl), 100 μl of TMB solution was added, followed by color development. 50 μl of a stop solution (3 N H2SO4) was added to stop the reaction, and then the absorbance was read at O.D. 450 nm.

MC3T3-E1 cells = assay: ALP staining of MC3T3-E1 cells; assay type: cell-based, mouse; details: MC3T3-E1, 10 μg/ml and 50 μg/ml, 14 days
Protocol: The mouse osteoblast line, MC3T3-E1 cells were seeded on a 24-well plate at 4×10^4 cells/well, and then incubated overnight. After the exchange with a medium containing 50 μg/ml ascorbic acid+10 mM b-glycerophosphate, the cells were treated with each peptide at concentrations of 10 μg/ml and 50 μg/ml, and incubated for 14 days to induce differentiation. Here, the medium exchange every three days and the treatment with the peptide were repeated (positive control: BMP2 […]). The incubation-completed plate well was washed two times with PBS, and then the cells were immobilized with an immobilization buffer, in which acetone, 37% formaldehyde, and citric acid solution were mixed, for 30 seconds. The following staining was carried out using the leukocyte alkaline phosphatase staining kit (SIGMA).
The cells were treated with a mixture, in which an FBB-alkaline solution was mixed with a sodium nitrite solution at 1:1, for 2 minutes, and then treated with a buffer composed of distilled water and naphthol AS-BI alkaline solution, followed by color development in an incubator at 37° C. for 1 hour.

osteoprotegerin (OPG) = assay: RT-PCR of osteogenic differentiation marker OPG; assay type: cell-based, mouse; details: MC3T3-E1, three days
β-catenin = assay: Western blotting of cell signaling material, β-catenin; assay type: cell-based, human; details: HFDPC, 1 and 10 μg/ml, 30 minutes and 60 minutes
Protocol: In order to observe the changes in the phosphorylation of ERK and the expression of PI3K, which are main signaling materials involved in cell proliferation in the human hair follicle dermal papilla cells, the cells were treated with the peptides of the present invention for 30 minutes and 60 minutes, and then subjected to western blotting using specific antibodies, thereby observing the pERK and PI3K changes. The test was carried out using anti-pERK antibody (Santa Cruz Biotechnology, USA) and anti-pPI3K antibody (Santa Cruz Biotechnology, USA).
The cells were treated with the cell lysis buffer to obtain a lysate, followed by protein quantification, and then western blotting was performed with respect to Phospho-ERK (pERK), PI3K, and β-catenin.

KGF = assay: Western blotting of hair growth protein KGF; assay type: cell-based, human; details: HFDPC, 0.1-50 μg/ml, 24 hours
Protocol: (§2) In order to observe the changes in the expression of IGF1, KGF, and Wnt3a, which are proteins involved in the development of hair roots in the human hair follicle dermal papilla cells, the cells were treated with the peptides of the present invention for 24 hours, and then subjected to western blotting using specific antibodies, thereby observing the changes in hair growth-related proteins.
(§3) The cells were stabilized by the incubation overnight, and then treated with the peptides at different concentrations (0.1-50 μg/ml) for 24 hours. The cells were treated with the cell lysis buffer to obtain a lysate, followed by protein quantification, and then western blotting was performed with respect to IGF-1, KGF, and Wnt3a.
(§4) The test was carried out using anti-IGF-1 antibody (Santa Cruz Biotechnology, USA), anti-KGF antibody (Santa Cruz Biotechnology, USA), and anti-Wnt3a antibody (Santa Cruz Biotechnology, USA).

Wnt3a = assay: Western blotting of hair growth protein Wnt3a; assay type: cell-based, human; details: HFDPC, 0.1-50 μg/ml, 24 hours
Protocol: as §2, §3, §4

Ha3-II and keratin 14 = assay: RT-PCR of keratinocyte differentiation markers in HaCaT cells; assay type: cell-based, human; details: HaCaT, 0.1, 1 and 10 μg/ml, 24 hours
Protocol: The cells were treated with the peptides at different concentrations (0.1 μg/ml, 1 μg/ml, and 10 μg/ml), and then incubated in an incubator at 37° C. for 24 hours. […] RT-PCR was carried out using primers of respective markers (Ha3-II and keratin 14) and PCR pre-mix (Intron) to measure the changes in the expression of the markers.
Target-specific primer sequences used in PCR for keratinocyte differentiation markers were as follows: Ha3-II forward primer sequence, 5′-[…]-3′ and Ha3-II reverse primer, 5′-[…]-3′ (annealing temperature, 60° C.); Keratin14 forward primer sequence, 5′-[…]-3′ and Keratin14 reverse primer, 5′-[…]-3′ (annealing temperature, 60° C.)

[1] = tested on: alkaline phosphatase (ALP); details: MC3T3-E1, three days, RT-PCR
Protocol: MC3T3-E1 (mouse osteoblast line) cells were seeded on a 6-well plate at a cell density of 1×10^5 cells/well. The cells incubated overnight were treated with the peptides at different concentrations (10 and 50 μg/ml), followed by incubation in an incubator at 37° C. for three days (positive control: 100 ng/ml BMP2 (Cell signaling)). After the incubation-completed cells were collected, the cells were treated with RNA extraction solution (Easy Blue, Intron) to prepare RNA, and then cDNA was synthesized using RT pre-mix (Intron). PCR was carried out using primers of respective markers (OPG, ALP, BSP) and PCR pre-mix (Intron).
Target-specific primer sequences used in PCR for osteogenic differentiation markers were as follows: OPG forward primer sequence, 5′-[sequence]-3′ and OPG reverse primer, 5′-[sequence]-3′ (annealing temperature, 60° C.); ALP forward primer sequence, 5′-[sequence]-3′ and ALP reverse primer, 5′-[sequence]-3′ (annealing temperature, 60° C.); BSP forward primer sequence, 5′-[sequence]-3′ and BSP reverse primer, 5′-[sequence]-3′ (annealing temperature, 60° C.)
5 μl of PCR product was loaded on 1% agarose gel, followed by electrophoresis, and then the bands were investigated using Gel-Doc.

T1 sequence (P08581 25-1390): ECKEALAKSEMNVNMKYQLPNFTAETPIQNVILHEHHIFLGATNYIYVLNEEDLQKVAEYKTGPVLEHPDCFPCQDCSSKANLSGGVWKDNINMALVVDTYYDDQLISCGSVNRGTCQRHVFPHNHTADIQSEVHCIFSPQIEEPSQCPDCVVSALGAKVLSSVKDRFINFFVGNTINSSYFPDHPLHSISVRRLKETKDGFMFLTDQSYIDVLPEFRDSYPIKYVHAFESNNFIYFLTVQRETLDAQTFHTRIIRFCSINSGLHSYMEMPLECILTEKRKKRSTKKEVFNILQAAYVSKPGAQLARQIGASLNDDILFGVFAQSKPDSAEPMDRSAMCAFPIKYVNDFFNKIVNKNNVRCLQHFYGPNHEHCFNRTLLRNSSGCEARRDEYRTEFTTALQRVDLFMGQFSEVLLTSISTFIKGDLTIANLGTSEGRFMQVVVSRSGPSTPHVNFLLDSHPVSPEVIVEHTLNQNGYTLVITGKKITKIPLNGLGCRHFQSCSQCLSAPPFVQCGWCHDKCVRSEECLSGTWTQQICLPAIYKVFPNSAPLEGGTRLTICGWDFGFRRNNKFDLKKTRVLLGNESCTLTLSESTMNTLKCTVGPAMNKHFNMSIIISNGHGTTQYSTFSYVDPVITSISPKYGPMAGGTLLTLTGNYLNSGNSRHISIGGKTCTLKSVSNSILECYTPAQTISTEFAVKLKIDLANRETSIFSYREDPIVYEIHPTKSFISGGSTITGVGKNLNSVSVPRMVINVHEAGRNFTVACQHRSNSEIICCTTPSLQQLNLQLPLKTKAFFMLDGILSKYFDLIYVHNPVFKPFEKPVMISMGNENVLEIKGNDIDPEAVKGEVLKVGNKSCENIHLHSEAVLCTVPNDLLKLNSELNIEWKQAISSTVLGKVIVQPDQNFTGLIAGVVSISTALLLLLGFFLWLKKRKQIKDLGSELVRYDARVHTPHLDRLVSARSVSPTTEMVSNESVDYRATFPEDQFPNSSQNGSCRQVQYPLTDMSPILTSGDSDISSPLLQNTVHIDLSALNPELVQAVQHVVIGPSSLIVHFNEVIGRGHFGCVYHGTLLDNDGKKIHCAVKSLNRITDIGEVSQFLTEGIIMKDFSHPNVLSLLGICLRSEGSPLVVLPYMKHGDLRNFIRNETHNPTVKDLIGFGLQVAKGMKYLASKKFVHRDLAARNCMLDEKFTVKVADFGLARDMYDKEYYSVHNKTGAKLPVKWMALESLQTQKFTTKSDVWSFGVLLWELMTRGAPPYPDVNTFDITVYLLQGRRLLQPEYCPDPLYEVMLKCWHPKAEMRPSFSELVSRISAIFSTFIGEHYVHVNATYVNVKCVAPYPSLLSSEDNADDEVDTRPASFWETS

Substance: NH2-Ala-Cys-Arg-Ser-Ala-Ile-Gly-Arg-Pro-Cys-COOH (H-ACRSAIGRPC-OH; cysteine pairing not given here) [SEQ ID NO: 1]
- binding affinity to TNFR (TNFR): high binding affinity
- expression of IL-1β increased by TNF-α treatment (IL-1β): inhibited
- expression of IL-8 increased by TNF-α treatment (IL-8): inhibited
- binding affinity on HGFR (HGFR): high binding affinity
- ALP expression (ALP staining) (MC3T3-E1 cells): increased
- expression of osteoprotegerin (OPG) (osteoprotegerin (OPG)): increased
- expression of β-catenin (β-catenin): increased
- expression of KGF (KGF): increased
- expression of Wnt3a (Wnt3a): increased
- mRNA expression levels of differentiation markers Ha3-II and keratin 14 (Ha3-II and keratin 14): keratinocyte differentiation promoting effect
- expression of alkaline phosphatase (ALP) [1]: increased

Reference: US10238710B2, “Peptide having anti-inflammatory, osteogenic and hair growth promoting activities, and use of same” (CAREGEN CO., LTD., priority 2014, dated 2019)
